The results in this text go back to publication PMC3275140 (Journal of Natural Products, 2011).

Each structure is given as a SMILES string. A value given as a limit tells only on which side of the number the result lay.

The subject of the test is tubulin. Kind of test: Inhibition of tubulin polymerization. It counts as biochemical. Conditions: read-out: Inhibition of tubulin polymerization IC50; pure protein assay.
As for `COc1cc(/C=C\c2ccc(OC)c(OP(=O)(O)O)c2O)cc(OC)c1OC` [4a (Z), (Z)-1-[3′,4′,5′-Trimethoxyphenyl]-2-[2″-[hydroxy]-3″-[(disodium)phosphate]-4″-methoxyphenyl] ethene], the IC50 (commonly the concentration at which inhibition is half-maximal) is over 40 µM.

Turning to `COc1ccc(/C=C\c2cc(OC)c(OC)c(OC)c2)c(OP(=O)(O)O)c1O` [8a (Z), (Z)-1-[3′,4′,5′-Trimethoxyphenyl]-2-[2″-[(disodium)phosphate]-3″-[hydroxy]-4″-methoxyphenyl] ethene], the IC50 was over 40 µM.

As to `COc1cc(/C=C\c2ccc(OC)c(OP(=O)(O)O)c2OP(=O)(O)O)cc(OC)c1OC` [CA1P (Z), reference compound], the concentration for half-maximal inhibition (IC50) is over 40 µM.
